Source: patent US11767322B2 (BRISTOL-MYERS SQUIBB COMPANY, priority 2020, dated 2023)
Read-outs that look alike come from different tables or passages of the source.

What was measured:
[1] = test system: MLKL phosphorylation in HT29-L23 human colorectal adenocarcinoma cells; assay: MLKL phosphorylation high-content assay; type: cell-based
[2] = molecular target: T1, His-GST-TVMV-hRIPK1(1-324) (Homo sapiens, UniProt Q13546); assay: biochemical; type: binding
T1 construct: The coding region of human RIPK1(1-324) flanked by NdeI site at 5′ end; made in house; host or cells: Spodoptera frugiperda Sf9 insect cells (baculovirus, Bac-to-Bac)
T1 sequence (Q13546 1-324): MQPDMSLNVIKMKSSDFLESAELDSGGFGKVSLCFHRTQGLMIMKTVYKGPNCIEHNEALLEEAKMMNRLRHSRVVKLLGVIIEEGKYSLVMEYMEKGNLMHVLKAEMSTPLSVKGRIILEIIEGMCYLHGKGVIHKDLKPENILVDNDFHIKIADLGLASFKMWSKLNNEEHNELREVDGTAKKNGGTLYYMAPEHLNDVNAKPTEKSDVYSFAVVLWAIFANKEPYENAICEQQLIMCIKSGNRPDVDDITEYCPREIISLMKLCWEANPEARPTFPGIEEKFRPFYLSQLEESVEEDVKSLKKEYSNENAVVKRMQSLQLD

[3] = Homo sapiens, 6 h, read-out: pMLKL IC50, HT29-L23 cells, necroptosis induced with TNFα, SMAC mimetic and Z-VAD, 6 h, maximal inhibition defined by Nec1s
[4] = HTRF probe displacement, 1 h at rt, read-out: RIPK1 IC50
[5] = Table 22, compounds of the present invention, read-out: RPIK1 IC50

Compound | IC50 [1, 3] [nM] | IC50 [2, 4] [nM] | further results
Nc1nc2cc(-c3ccc(Cl)c(C(=O)NCC(F)(F)C(O)c4cccc(F)c4F)c3F)ccn2n1 (single isomer, unassigned) [Example 166, 3-(2-amino-[1,2,4]triazolo[1,5-a]pyridin-7-yl)-6-chloro-N-(3-(2,3-difluorophenyl)-2,2-difluoro-3-hydroxypropyl)-2-fluorobenzamide] | 5.1 | 2.1 | 
Cc1ccc(-c2ccn3nc(N)nc3c2)c(F)c1C(=O)NCCC(C)(F)c1ccc(Cl)cc1 (stereo not drawn) [Example 228, 3-(2-amino-[1,2,4]triazolo[1,5-a]pyridin-7-yl)-N-(3-(4-chlorophenyl)-3-fluorobutyl)-2-fluoro-6-methylbenzamide] | 1 | 0.9 | 
Nc1nc2cc(-c3ccc(Cl)c(C(=O)NCCC(O)c4ccc(Cl)cn4)c3F)ccn2n1 (stereo not drawn) [Example 81, 3-(2-amino-[1,2,4]triazolo[1,5-a]pyridin-7-yl)-6-chloro-N-(3-(5-chloropyridin-2-yl)-3-hydroxypropyl)-2-fluorobenzamide] | 38 | 24 | 
[2H]C([2H])([2H])c1ccc(-c2ccn3nc(N)nc3c2)c(F)c1C(=O)NC[C@@H](F)[C@@](C)(O)c1ccc(F)cc1 [Example 216, 3-(2-amino-[1,2,4]triazolo[1,5-a]pyridin-7-yl)-2-fluoro-N-((2R,3S)-2-fluoro-3-(4-fluorophenyl)-3-hydroxybutyl)-6-(methyl-d3)benzamide] | 0.4 | 4.7 | 
[2H]C([2H])([2H])C(O)(c1ccc(F)cc1)C(F)CNC(=O)c1c(C(F)F)ccc(-c2ccn3nc(N)nc3c2)c1F (single isomer, unassigned) [Example 195, 3-(2-amino-[1,2,4]triazolo[1,5-a]pyridin-7-yl)-6-(difluoromethyl)-2-fluoro-N-(2-fluoro-3-(4-fluorophenyl)-3-hydroxybutyl-4,4,4-d3)benzamide] | 1 | 8.4 | 
Cc1ccc(-c2ccn3nc(N)nc3c2)c(F)c1C(=O)NCC(O)C(F)(F)c1ccc(F)cc1 (single isomer, unassigned) [Example 290, 3-(2-amino-[1,2,4]triazolo[1,5-a]pyridin-7-yl)-N-(3,3-difluoro-3-(4-fluorophenyl)-2-hydroxypropyl)-2-fluoro-6-methylbenzamide] |  | 4.8 | IC50 ([1]; read-out: pMLKL IC50, HT29-L23 cells, necroptosis induced with TNFα, SMAC mimetic and Z-VAD, 6 h, maximal inhibition defined by Nec1s): 0.5 nM; IC50 ([1]; read-out: pMLKL IC50, Table 22, compounds of the present invention): 0.5 nM; IC50 [2, 5]: 4.8 nM
Cc1ccc(-c2ccn3nc(N)nc3c2)c(F)c1C(=O)NCC[C@H](O)c1ccc(Cl)cc1 [Example 151, (S)-3-(2-amino-[1,2,4]triazolo[1,5-a]pyridin-7-yl)-N-(3-(4-chlorophenyl)-3-hydroxypropyl)-2-fluoro-6-methylbenzamide] | 0.8 | 2.8 | IC50 ([1]; Homo sapiens, read-out: pMLKL IC50, Table 22, compounds of the present invention): 0.8 nM; IC50 [2, 5]: 3.5 nM
Cc1ccc(-c2ccn3nc(N)nc3c2)c(F)c1C(=O)NCC(F)(F)C(O)c1c(F)cc(F)cc1F (single isomer, unassigned) [Example 283, 3-(2-amino-[1,2,4]triazolo[1,5-a]pyridin-7-yl)-N-(2,2-difluoro-3-hydroxy-3-(2,4,6-trifluorophenyl)propyl)-2-fluoro-6-methylbenzamide] | 1 | 0.5 | 
Cc1cc(F)c(-c2ccn3nc(N)nc3c2)cc1C(=O)NCCC(O)c1ccc(Cl)cn1 (stereo not drawn) [Example 5, 5-(2-amino-[1,2,4]triazolo[1,5-a]pyridin-7-yl)-N-(3-(5-chloropyridin-2-yl)-3-hydroxypropyl)-4-fluoro-2-methylbenzamide] | 2.6 | 6.4 | 
Cc1ccc(C(O)C(F)(F)CNC(=O)c2c(Cl)ccc(-c3ccn4nc(N)nc4c3)c2F)cc1 (stereo not drawn) [Example 172, 3-(2-amino-[1,2,4]triazolo[1,5-a]pyridin-7-yl)-6-chloro-N-(2,2-difluoro-3-hydroxy-3-(p-tolyl)propyl)-2-fluorobenzamide] |  | 1.3 | 
COc1ncc(-c2ccn3nc(N)nc3c2)cc1C(=O)NCC[C@H](O)c1ccc(Cl)cc1 [Example 157] |  |  | IC50 ([2]; Table 23, representative compounds from WO2018/148626, read-out: RIPK1 IC50): 59 nM
